Results: US20240246967A1, “AXL COMPOUNDS” (ARCUS BIOSCIENCES, INC., priority 2021, published 2024)

Molecular target: T1, Axl (Homo sapiens, UniProt P30530)
T1 sequence (P30530 26-894): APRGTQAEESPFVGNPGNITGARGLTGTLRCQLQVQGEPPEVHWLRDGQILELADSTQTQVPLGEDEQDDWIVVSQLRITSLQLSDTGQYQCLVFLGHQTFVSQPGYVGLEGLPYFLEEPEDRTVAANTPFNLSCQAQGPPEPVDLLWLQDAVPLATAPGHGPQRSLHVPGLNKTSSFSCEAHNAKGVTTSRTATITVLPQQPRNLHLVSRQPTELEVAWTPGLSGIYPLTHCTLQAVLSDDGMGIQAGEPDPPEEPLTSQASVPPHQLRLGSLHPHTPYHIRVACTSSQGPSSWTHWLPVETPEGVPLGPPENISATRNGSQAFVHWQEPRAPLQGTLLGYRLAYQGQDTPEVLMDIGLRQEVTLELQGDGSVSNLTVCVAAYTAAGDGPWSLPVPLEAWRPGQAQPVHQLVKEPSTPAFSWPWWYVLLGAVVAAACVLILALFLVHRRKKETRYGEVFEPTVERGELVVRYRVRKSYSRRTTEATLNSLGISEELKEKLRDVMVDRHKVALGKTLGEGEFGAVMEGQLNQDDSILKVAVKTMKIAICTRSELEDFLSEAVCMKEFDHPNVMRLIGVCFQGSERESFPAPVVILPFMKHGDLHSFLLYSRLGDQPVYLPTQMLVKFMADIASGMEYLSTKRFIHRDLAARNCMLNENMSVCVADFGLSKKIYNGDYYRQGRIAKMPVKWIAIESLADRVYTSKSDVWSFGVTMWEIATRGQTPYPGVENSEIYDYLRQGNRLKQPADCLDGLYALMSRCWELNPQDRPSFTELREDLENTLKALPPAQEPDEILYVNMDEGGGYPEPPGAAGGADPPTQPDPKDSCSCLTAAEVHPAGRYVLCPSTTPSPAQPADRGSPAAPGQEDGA
Test: Axl NanoBRET intracellular kinase assay (intracellular binding, Cell Binding)
Design: host or cells: HEK-293
Settings: HEK-293 cells transfected with Axl-NanoLuc fusion vector; 0.35 μM K-5 NanoBRET tracer
Procedure, shortened: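 HEK-293 cells transiently transfected with Axl-NanoLuc fusion the day before were pre-incubated with compound for 1 h at 37 °C, 5% CO2 (0.5% DMSO), then with 0.35 μM K-5 NanoBRET tracer for 2 h. Tracer displacement was read as the 610/450 nm BRET ratio; IC50 from 4-parameter fit.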

| IC50 [nM] | Compound |
| --- | --- |
| < 100 | C[C@@H]1CCCN1C1CCc2ccc(-c3cnc4[nH]nc(-c5ccc(S(=O)(=O)C6CC6)cc5)c4c3)cc2C(C)(C)C1 (stereo partly drawn) [Example 109, (2R)-1-(2-{3-[4-(Cyclopropanesulfonyl)phenyl]-1H-pyrazolo[3,4-b]pyridin-5-yl}-9,9-dimethyl-6,7,8,9-tetrahydro-5H-benzo[7]annulen-7-yl)-2-methylpyrrolidine] |
| < 100 | COCCOc1ccc(-c2n[nH]c3ncc(-c4ccc5c(c4)CCC(C)(N4CCC[C@H]4C)CC5)cc23)cc1 (stereo partly drawn) [Example 110, 3-(4-(2-Methoxyethoxy)phenyl)-5-(7-methyl-7-((R)-2-methylpyrrolidin-1-yl)-6,7,8,9-tetrahydro-5H-benzo[7]annulen-2-yl)-1H-pyrazolo[3,4-b]pyridine] |
| < 100 | COCCS(=O)(=O)c1ccc(-c2n[nH]c3ncc(-c4ccc5c(c4)CCC(C)(N4CCC[C@H]4C)CC5)cc23)cc1 (stereo partly drawn) [Example 111, (2R)-1-(2-{3-[4-(2-Methoxyethanesulfonyl)phenyl]-1H-pyrazolo[3,4-b]pyridin-5-yl}-7-methyl-6,7,8,9-tetrahydro-5H-benzo[7]annulen-7-yl)-2-methylpyrrolidine] |
| 100 to 1000 | O=C([C@@H]1CCCN1)N1CCc2ccc(-c3cnc4[nH]nc(-c5ccc(S(=O)(=O)C6CC6)cc5)c4c3)cc2CC1 [Example 112, 7-{3-[4-(Cyclopropanesulfonyl)phenyl]-1H-pyrazolo[3,4-b]pyridin-5-yl}-3-[(2S)-pyrrolidine-2-carbonyl]-2,3,4,5-tetrahydro-1H-3-benzazepine] |
| 100 to 1000 | O=C([C@H]1CCCN1)N1CCc2ccc(-c3cnc4[nH]nc(-c5ccc(S(=O)(=O)C6CC6)cc5)c4c3)cc2CC1 [Example 113, 7-{3-[4-(Cyclopropanesulfonyl)phenyl]-1H-pyrazolo[3,4-b]pyridin-5-yl}-3-[(2R)-pyrrolidine-2-carbonyl]-2,3,4,5-tetrahydro-1H-3-benzazepine] |
| < 100 | COc1cc(-c2n[nH]c3ncc(-c4ccc5c(c4)CCC(C)(N4CCC[C@H]4C)CC5)cc23)ccc1OC[C@H]1COCCO1 (stereo partly drawn) [Example 114, (2R)-1-{2-[3-(4-{[(2R)-1,4-Dioxan-2-yl]methoxy}-3-methoxyphenyl)-1H-pyrazolo[3,4-b]pyridin-5-yl]-7-methyl-6,7,8,9-tetrahydro-5H-benzo[7]annulen-7-yl}-2-methylpyrrolidine] |
| 100 to 1000 | CC1(N[C@H]2CCOC2)CCc2ccc(-c3cnc4[nH]nc(-c5ccc(S(=O)(=O)C6CC6)cc5)c4c3)cc2CC1 (stereo partly drawn) [Example 115, (3S)-N-(2-{3-[4-(Cyclopropanesulfonyl)phenyl]-1H-pyrazolo[3,4-b]pyridin-5-yl}-7-methyl-6,7,8,9-tetrahydro-5H-benzo[7]annulen-7-yl)oxolan-3-amine] |
| < 100 | C[C@@H]1CCCN1C1(C)CCc2ccc(-c3cnc4[nH]nc(-c5ccc(C(=O)N[C@H]6CCOC6)cc5)c4c3)cc2CC1 (stereo partly drawn) [Example 117, 4-(5-{7-Methyl-7-[(2R)-2-methylpyrrolidin-1-yl]-6,7,8,9-tetrahydro-5H-benzo[7]annulen-2-yl}-1H-pyrazolo[3,4-b]pyridin-3-yl)-N-[(3S)-oxolan-3-yl]benzamide] |
| < 100 | C[C@@H]1CCCN1C1(C)CCc2ccc(-c3cnc4[nH]nc(-c5ccc(C(=O)N6CCCC6)cc5)c4c3)cc2CC1 (stereo partly drawn) [Example 118, (2R)-2-Methyl-1-(7-methyl-2-{3-[4-(pyrrolidine-1-carbonyl)phenyl]-1H-pyrazolo[3,4-b]pyridin-5-yl}-6,7,8,9-tetrahydro-5H-benzo[7]annulen-7-yl)pyrrolidine] |
| 100 to 1000 | Cc1cc(-c2n[nH]c3ncc(-c4ccc5c(c4)CCN(C4CC4)CC5)cc23)ccc1C(=O)N1CCNCC1 [Example 119, 3-Cyclopropyl-7-{3-[3-methyl-4-(piperazine-1-carbonyl)phenyl]-1H-pyrazolo[3,4-b]pyridin-5-yl}-2,3,4,5-tetrahydro-1H-3-benzazepine] |
| 100 to 1000 | CC1(N2CCc3ccc(-c4cnc5[nH]nc(-c6ccc(S(=O)(=O)C7CC7)cc6)c5c4)cc3CC2)CCCC1 [Example 120, 7-{3-[4-(Cyclopropanesulfonyl)phenyl]-1H-pyrazolo[3,4-b]pyridin-5-yl}-3-(1-methylcyclopentyl)-2,3,4,5-tetrahydro-1H-3-benzazepine] |
| < 100 | O=C1OCCN1c1ccc(-c2n[nH]c3ncc(-c4ccc5c(c4)CC[C@@H](N4C6COCC4C6)CC5)cc23)cc1 [Example 121, 3-(4-{5-[(7S)-7-{3-oxa-6-azabicyclo[3.1.1]heptan-6-yl}-6,7,8,9-tetrahydro-5H-benzo[7]annulen-2-yl]-2H-pyrazolo[3,4-b]pyridin-3-yl}phenyl)-1,3-oxazolidin-2-one] |
| < 100 | O=C1CCCN1c1ccc(-c2n[nH]c3ncc(-c4ccc5c(c4)CC[C@@H](N4C6COCC4C6)CC5)cc23)cc1 [Example 122, 1-(4-{5-[(7S)-7-{3-oxa-6-azabicyclo[3.1.1]heptan-6-yl}-6,7,8,9-tetrahydro-5H-benzo[7]annulen-2-yl]-2H-pyrazolo[3,4-b]pyridin-3-yl}phenyl)pyrrolidin-2-one] |
| < 100 | COCCOc1ccc(-c2n[nH]c3ncc(-c4ccc5c(c4)CC[C@@H](N4C6COCC4C6)CC5)cc23)cc1 [Example 123, 6-[(7S)-2-{3-[4-(2-methoxyethoxy)phenyl]-2H-pyrazolo[3,4-b]pyridin-5-yl}-6,7,8,9-tetrahydro-5H-benzo[7]annulen-7-yl]-3-oxa-6-azabicyclo[3.1.1]heptane] |
| < 100 | CC(C)(C)S(=O)(=O)c1ccc(-c2n[nH]c3ncc(-c4ccc5c(c4)CC[C@@H](N4C6COCC4C6)CC5)cc23)cc1 [Example 124, 6-[(7S)-2-{3-[4-(2-methylpropane-2-sulfonyl)phenyl]-2H-pyrazolo[3,4-b]pyridin-5-yl}-6,7,8,9-tetrahydro-5H-benzo[7]annulen-7-yl]-3-oxa-6-azabicyclo[3.1.1]heptane] |
| < 100 | CN(C)C(=O)c1ccc(-c2n[nH]c3ncc(-c4ccc5c(c4)CC[C@@H](N4C6COCC4C6)CC5)cc23)cc1 [Example 125, N,N-Dimethyl-4-{5-[(7S)-7-{3-oxa-6-azabicyclo[3.1.1]heptan-6-yl}-6,7,8,9-tetrahydro-5H-benzo[7]annulen-2-yl]-2H-pyrazolo[3,4-b]pyridin-3-yl}benzamide] |
| 100 to 1000 | c1cc2c(cc1-c1cnc3[nH]nc(-c4ccc(N5C[C@H]6C[C@@H]5CO6)cc4)c3c1)CC[C@@H](N1C3COCC1C3)CC2 [Example 126, (1R,4R)-5-(4-{5-[(7S)-7-{3-oxa-6-azabicyclo[3.1.1]heptan-6-yl}-6,7,8,9-tetrahydro-5H-benzo[7]annulen-2-yl]-2H-pyrazolo[3,4-b]pyridin-3-yl}phenyl)-2-oxa-5-azabicyclo[2.2.1]heptane] |
| < 100 | FC1CN(c2ccc(-c3c[nH]c4ncc(-c5ccc6c(c5)CC[C@@H](N5C7COCC5C7)CC6)cc34)cc2)C1 [Example 127, 6-[(7S)-2-{3-[4-(3-fluoroazetidin-1-yl)phenyl]-1H-pyrrolo[2,3-b]pyridin-5-yl}-6,7,8,9-tetrahydro-5H-benzo[7]annulen-7-yl]-3-oxa-6-azabicyclo[3.1.1]heptane] |
